Results as given in ChEMBL document CHEMBL1127922, “Synthesis and pharmacological evaluation of vinyl sulfone based anticancer agents” (Bioorg Med Chem Lett, 1994).

Key:
A549 = test: In vitro cytotoxicity in human tumor lung carcinoma A-549 cell lines; assay type: functional
HT-29 = test: In vitro cytotoxicity in human tumor colon adenocarcinoma HT-29 cell lines; assay type: functional
MCF7 = test: In vitro cytotoxicity in human tumor breast carcinoma MCF-7 cell lines; assay type: functional
Malme-3M = test: In vitro cytotoxicity in human tumor melanoma MALME-3M cell lines; assay type: functional
SK-MEL-5 = test: In vitro cytotoxicity in human tumor melanoma SK-MEL5c ell lines; assay type: functional
Mus musculus [1] = test: In vivo inhibitory activity against HT-29 colon cells at maximally tolerated dose(MTD) of 33 mg/kg in mice; assay type: functional
[2] = In vitro toxicity against ras transformed 3LL cell lines was determined; assay type: cell-based; conditions: ras transformed 3LL cells; read-out: LC50 (the source's name)
[3] = In vitro toxicity against ras transformed H/1.2-NRK cell lines was determined; conditions: rat, ras transformed H/1.2-NRK cells; read-out: LC50 (the source's name)
[4] = In vitro toxicity against ras transformed K/1-NRK cell lines was determined; conditions: rat, ras transformed K/1-NRK cells; read-out: LC50 (the source's name)
[5] = In vitro toxicity against ras transformed NRKE cell lines was determined; assay type: cell-based; conditions: rat, NRKE cells; read-out: LC50 (the source's name)
[6] = Total number of toxic deaths of mice to the total number of mice tested was determined at a dose of 100 mg/kg; 1/8; assay type: ADME, organism-based; set-up: dose 100 mg/kg; conditions: mouse, in vivo
[7] = Total number of toxic deaths of mice to the total number of mice tested was determined at a dose of 33 mg/kg; 0/8; assay type: ADME, organism-based; set-up: dose 33 mg/kg; conditions: mouse, in vivo
[8] = (§1) Ratio of LC50(NRKE) to LC50(H/1.2-NRK) expressed as differential induces(DI) was determined; assay type: functional
[9] = Ratio of LC50(NRKE) to LC50(K/1-NRK) expressed as differential induces(DI) was determined; assay type: functional
[10] = (§2) Ratio of LC50(NRKE) to LC50(N/4.2-NRK ) expressed as differential induces(DI) was determined; assay type: functional
[11] = Ratio of LC50(NRKE) to LC50(3LL) expressed as differential induces(DI) was determined; assay type: functional
Mus musculus [12] = test: In vivo inhibitory activity against HT-29 colon cells at maximally tolerated dose(MTD) of 100 mg/kg in mice; assay type: functional
[13] = In vitro toxicity against ras transformed N/4.2-NRK cell lines was determined; conditions: rat, ras transformed N/4.2-NRK cells; read-out: LC50 (the source's name)
Mus musculus [14] = test: In vivo inhibitory activity against HT-29 colon cells at maximally tolerated dose(MTD) of 11 mg/kg in mice; assay type: functional
[15] = Total number of toxic deaths of mice to the total number of mice tested was determined at a dose of 11 mg/kg; 0/8; assay type: ADME, organism-based; set-up: dose 11 mg/kg; conditions: mouse, in vivo
[16] = as §1; assay type: ADME; conditions: rat, NRKE cells and H/1.2-NRK cells
[17] = as §2; assay type: ADME; conditions: rat, NRKE cells and N/4.2-NRK cells
Mus musculus [18] = test: In vivo inhibitory activity against HT-29 colon cells at maximally tolerated dose(MTD) of 3 mg/kg in mice; assay type: functional
Mus musculus [19] = test: In vivo inhibitory activity against HT-29 colon cells at maximally tolerated dose(MTD) of 10 mg/kg in mice; assay type: functional
[20] = Total number of toxic deaths of mice to the total number of mice tested was determined at a dose of 10 mg/kg; 0/8; assay type: ADME, organism-based; set-up: dose 10 mg/kg; conditions: mouse, in vivo
[21] = Total number of toxic deaths of mice to the total number of mice tested was determined at a dose of 3 mg/kg; 0/8; assay type: ADME, organism-based; set-up: dose 3 mg/kg; conditions: mouse, in vivo

| SMILES | ED50 (A549) [M l-1] | ED50 (MCF7) [M l-1] | ED50 (Malme-3M) | ED50 (SK-MEL-5) [M l-1] | CC50 [2] [µM] | CC50 [3] [µM] | CC50 [4] [µM] | CC50 [5] [µM] | CC50 [13] [µM] | also measured |
| --- | --- | --- | --- | --- | --- | --- | --- | --- | --- | --- |
| C=C(CCl)S(C)(=O)=O | 1.9e-05 | 6.5e-06 | 6.5e-06 M l-1 | 3.2e-06 | – | – | – | – | – | ED50 (HT-29): 2.2e-06 M l-1 |
| C=C(CNC1CC(C(C)(C)C)CCC1O)S(C)(=O)=O (stereo not given) | 6.7e-07 | 4.7e-07 | 6e-07 M l-1 | 1.9e-07 | – | – | – | – | – | – |
| C=C(CN1C(=O)OC2CCC(C(C)(C)C)CC21)S(C)(=O)=O (stereo not given) | 2.9e-05 | 2.7e-06 | 1.1e-05 M l-1 | 1.3e-06 | 3.1 | 4.7 | 2.6 | 4.4 | 5 | inhibition in vivo at 33 mg/kg (Mus musculus [1]): 0%; Toxic deaths [6]: 1; Toxic deaths [7]: 0; Ratio [8]: 0.9; Ratio [9]: 1.7; Ratio [10]: 0.9; Ratio [11]: 1.4; inhibition in vivo at 100 mg/kg (Mus musculus [12]): 0% |
| CC(C)(C)C1CCC(O)C(N)C1 (stereo not given) | 0.00016 | 0.00026 | > 100 µM | 0.00045 | – | – | – | – | – | ED50 (HT-29): > 100 µM |
| C=C(CN(C)C1CC(C(C)(C)C)CCC1O)S(C)(=O)=O (stereo not given) | 1.4e-05 | 1.7e-07 | 4.8e-07 M l-1 | 5.6e-07 | – | – | – | – | – | – |
| C=C(CN(CC(=C)S(C)(=O)=O)C1CC(C(C)(C)C)CCC1O)S(C)(=O)=O (stereo not given) | 1.3e-06 | 3.3e-07 | 4.2e-06 M l-1 | 4.6e-07 | 0.8 | 2.5 | 0.6 | 2.4 | 1.4 | inhibition in vivo at 11 mg/kg (Mus musculus [14]): 0%; inhibition in vivo at 33 mg/kg (Mus musculus [1]): 0%; Toxic deaths [15]: 0; Toxic deaths [7]: 0; selectivity ratio [16]: 1; selectivity ratio [17]: 0.6 |
| C=C(CN1COC2CCC(C(C)(C)C)CC21)S(C)(=O)=O (stereo not given) | 1.2e-06 | 2.4e-07 | 1e-06 M l-1 | 9.6e-07 | 0.5 | 2.1 | 0.5 | 1.4 | 1.8 | inhibition in vivo at 3 mg/kg (Mus musculus [18]): 0%; inhibition in vivo at 10 mg/kg (Mus musculus [19]): 0%; Toxic deaths [20]: 0; Toxic deaths [21]: 0; Ratio [8]: 0.6; Ratio [10]: 0.8 |
